Earlier results, collected in article PMC8153205 (Journal of Inflammation Research, 2021).

Test system: rheumatoid arthritis
Settings: RA clinical trials

In the case of `NC(=O)c1cnc2[nH]ccc2c1N[C@@H]1[C@@H]2CC3C[C@H]1C[C@@](O)(C3)C2` [peficitinib], the “SUCRA for serious adverse events (safety)” value is given as 0.66.
